Measurements as given in article PMC8301025 (Biology, 2021).

Test system: T1, CLas GMPS
T1 construct: gene guaA
Conditions: read-out: (NH4)2SO4, Km mM; saturating XMP and ATP, 20 mM MgCl2, pH 8.5; salt printed as (NH4)2SO4 in table, NH4Cl in methods; text prints 10.9 ± 1.9 mM

Question: How did the Km turn out when `N` [NH4+] was run?
Answer: 10.9 ± 1.3 mM
